Reference: ChEMBL document CHEMBL1125202 (J Med Chem, 1991)

Biological target: Sodium/potassium-transporting ATPase
Assay: Inhibition of [3H]ouabain binding to Na/K ATP-ase in dog heart muscle
Assay type: tissue-based, Canis lupus familiaris, Muscle tissue

SMILES | IC50
C[C@]12CC[C@H](OC[C@@H]3O[C@H](O)C[C@@H](O)[C@H]3O)C[C@@H]1CC[C@@H]1[C@@H]2CC[C@]2(C)[C@@H](C3=CC(=O)OC3)CC[C@@]12O | 9 nM
C[C@]12CC[C@H](OC[C@H]3O[C@H](O)[C@H](O)[C@@H](O)[C@@H]3O)CC1CC[C@@H]1[C@@H]2CC[C@]2(C)[C@H](C3=CC(=O)OC3)CC[C@@]12O (stereo not given in full) | 3 nM
CC(O)C1CCC2(O)C3CCC4C[C@H](OC[C@H]5O[C@@H](O)[C@H](O)[C@H](O)[C@H]5O)CCC4(C)C3CCC12C (stereo not given in full) | 75 nM
CC(=O)[C@H]1CC[C@@]2(O)[C@@H]3CC[C@H]4C[C@@H](OC[C@@H]5O[C@H](OC[C@@H]6O[C@H](OC[C@@H]7O[C@H](O)C[C@@H](O)[C@H]7O)C[C@@H](O)[C@H]6O)C[C@@H](O)[C@H]5O)CC[C@]4(C)[C@H]3CC[C@]12C | 1000 nM
CC(O)[C@H]1CC[C@@]2(O)[C@@H]3CC[C@H]4CCCC[C@]4(C)[C@H]3CC[C@]12C (stereo not given in full) | 24000 nM
C[C@]12CCCC[C@@H]1CC[C@@H]1[C@@H]2CC[C@]2(C)[C@@H](C3=CC(=O)OC3)CC[C@@]12O | 70 nM
CC(O)[C@H]1CC[C@@]2(O)[C@@H]3CC[C@H]4C[C@@H](OC[C@@H]5O[C@H](O)C[C@@H](O)[C@H]5O)CC[C@]4(C)[C@H]3CC[C@]12C (stereo not given in full) | 650 nM
C[C@]12CC[C@H](OC[C@H]3O[C@H](O)[C@H](O)[C@@H](O)[C@@H]3O)CC1CC[C@@H]1[C@@H]2CC[C@]2(C)[C@@H](C3=CC(=O)OC3)CC[C@@]12O (stereo not given in full) | 7 nM
CC(=O)[C@H]1CC[C@@]2(O)[C@@H]3CC[C@H]4C[C@@H](O)CC[C@]4(C)[C@H]3CC[C@]12C | 20000 nM
C[C@H](O)C1CC[C@@]2(O)[C@@H]3CC[C@H]4C[C@@H](OC[C@@H]5O[C@H](OC[C@@H]6O[C@H](O)C[C@@H](O)[C@H]6O)C[C@@H](O)[C@H]5O)CC[C@]4(C)[C@H]3CC[C@]12C (stereo not given in full) | 650 nM
CC(O)[C@H]1CC[C@@]2(O)[C@@H]3CCC4C[C@@H](O)CC[C@]4(C)[C@H]3CC[C@]12C (stereo not given in full) | 6400 nM
CC(O)[C@H]1CC[C@@]2(O)[C@@H]3CC[C@H]4C[C@@H](OC[C@@H]5O[C@H](OC[C@@H]6O[C@H](OC[C@@H]7O[C@H](O)C[C@@H](O)[C@H]7O)C[C@@H](O)[C@H]6O)C[C@@H](O)[C@H]5O)CC[C@]4(C)[C@H]3CC[C@]12C (stereo not given in full) | 650 nM
C[C@]12CC[C@H](OC[C@@H]3O[C@H](OC[C@@H]4O[C@H](O)C[C@@H](O)[C@H]4O)C[C@@H](O)[C@H]3O)C[C@@H]1CC[C@@H]1[C@@H]2CC[C@]2(C)[C@@H](C3=CC(=O)OC3)CC[C@@]12O | 8 nM
CC(=O)C1CCC2(O)C3CCC4C[C@H](OC[C@H]5O[C@@H](O)[C@H](O)[C@H](O)[C@H]5O)CCC4(C)C3CCC12C (stereo not given in full) | 150 nM
C[C@]12CC[C@H](OC[C@@H]3O[C@H](OC[C@@H]4O[C@H](OC[C@@H]5O[C@H](O)C[C@@H](O)[C@H]5O)C[C@@H](O)[C@H]4O)C[C@@H](O)[C@H]3O)C[C@@H]1CC[C@@H]1[C@@H]2CC[C@]2(C)[C@@H](C3=CC(=O)OC3)CC[C@@]12O | 8 nM
CC(=O)[C@H]1CC[C@@]2(O)[C@@H]3CC[C@H]4C[C@@H](OC[C@@H]5O[C@H](OC[C@@H]6O[C@H](O)C[C@@H](O)[C@H]6O)C[C@@H](O)[C@H]5O)CC[C@]4(C)[C@H]3CC[C@]12C | 800 nM
CC(=O)[C@H]1CC[C@@]2(O)[C@@H]3CC[C@H]4C[C@@H](OC[C@@H]5O[C@H](O)C[C@@H](O)[C@H]5O)CC[C@]4(C)[C@H]3CC[C@]12C | 1300 nM
CC(=O)[C@H]1CC[C@@]2(O)[C@@H]3CC[C@H]4CCCC[C@]4(C)[C@H]3CC[C@]12C | > 200000 nM
CC(O)C1CCC2(O)C3CCC4C[C@@H](OC[C@H]5O[C@@H](O)[C@H](O)[C@H](O)[C@H]5O)CCC4(C)C3CCC12C (stereo not given in full) | 400 nM
CC(=O)C1CCC2(O)C3CCC4C[C@@H](OC[C@H]5O[C@@H](O)[C@H](O)[C@H](O)[C@H]5O)CCC4(C)C3CCC12C (stereo not given in full) | 500 nM
